Patent publication US11731976B2, “3-(ethoxydifluoromethyl)-6-(5-fluoro-6-(2,2,2-trifluoroethoxy)pyridin-3-yl)-[1,2,4]triazolo[4,3-a]pyridine as an ion channel modulator” (Praxis Precision Medicines, Inc., priority 2018, dated 2023)

Each compound was assayed against T1, human NaV1.6 (hNaV1.6) (Homo sapiens, UniProt Q9UQD0) (assay: Modulation of late sodium current (INaL), PatchXpress electrophysiology, HEK-293 cells expressing hNaV1.6). Details: HEK293, late current evoked by 300 nM ATX-II, read-out: NaV 1.6 Assay Data: percent inhibition of INaL at hNaV1.6.
T1 construct: expressed in transfected cells; host or cells: HEK-293
T1 sequence (Q9UQD0 whole entry): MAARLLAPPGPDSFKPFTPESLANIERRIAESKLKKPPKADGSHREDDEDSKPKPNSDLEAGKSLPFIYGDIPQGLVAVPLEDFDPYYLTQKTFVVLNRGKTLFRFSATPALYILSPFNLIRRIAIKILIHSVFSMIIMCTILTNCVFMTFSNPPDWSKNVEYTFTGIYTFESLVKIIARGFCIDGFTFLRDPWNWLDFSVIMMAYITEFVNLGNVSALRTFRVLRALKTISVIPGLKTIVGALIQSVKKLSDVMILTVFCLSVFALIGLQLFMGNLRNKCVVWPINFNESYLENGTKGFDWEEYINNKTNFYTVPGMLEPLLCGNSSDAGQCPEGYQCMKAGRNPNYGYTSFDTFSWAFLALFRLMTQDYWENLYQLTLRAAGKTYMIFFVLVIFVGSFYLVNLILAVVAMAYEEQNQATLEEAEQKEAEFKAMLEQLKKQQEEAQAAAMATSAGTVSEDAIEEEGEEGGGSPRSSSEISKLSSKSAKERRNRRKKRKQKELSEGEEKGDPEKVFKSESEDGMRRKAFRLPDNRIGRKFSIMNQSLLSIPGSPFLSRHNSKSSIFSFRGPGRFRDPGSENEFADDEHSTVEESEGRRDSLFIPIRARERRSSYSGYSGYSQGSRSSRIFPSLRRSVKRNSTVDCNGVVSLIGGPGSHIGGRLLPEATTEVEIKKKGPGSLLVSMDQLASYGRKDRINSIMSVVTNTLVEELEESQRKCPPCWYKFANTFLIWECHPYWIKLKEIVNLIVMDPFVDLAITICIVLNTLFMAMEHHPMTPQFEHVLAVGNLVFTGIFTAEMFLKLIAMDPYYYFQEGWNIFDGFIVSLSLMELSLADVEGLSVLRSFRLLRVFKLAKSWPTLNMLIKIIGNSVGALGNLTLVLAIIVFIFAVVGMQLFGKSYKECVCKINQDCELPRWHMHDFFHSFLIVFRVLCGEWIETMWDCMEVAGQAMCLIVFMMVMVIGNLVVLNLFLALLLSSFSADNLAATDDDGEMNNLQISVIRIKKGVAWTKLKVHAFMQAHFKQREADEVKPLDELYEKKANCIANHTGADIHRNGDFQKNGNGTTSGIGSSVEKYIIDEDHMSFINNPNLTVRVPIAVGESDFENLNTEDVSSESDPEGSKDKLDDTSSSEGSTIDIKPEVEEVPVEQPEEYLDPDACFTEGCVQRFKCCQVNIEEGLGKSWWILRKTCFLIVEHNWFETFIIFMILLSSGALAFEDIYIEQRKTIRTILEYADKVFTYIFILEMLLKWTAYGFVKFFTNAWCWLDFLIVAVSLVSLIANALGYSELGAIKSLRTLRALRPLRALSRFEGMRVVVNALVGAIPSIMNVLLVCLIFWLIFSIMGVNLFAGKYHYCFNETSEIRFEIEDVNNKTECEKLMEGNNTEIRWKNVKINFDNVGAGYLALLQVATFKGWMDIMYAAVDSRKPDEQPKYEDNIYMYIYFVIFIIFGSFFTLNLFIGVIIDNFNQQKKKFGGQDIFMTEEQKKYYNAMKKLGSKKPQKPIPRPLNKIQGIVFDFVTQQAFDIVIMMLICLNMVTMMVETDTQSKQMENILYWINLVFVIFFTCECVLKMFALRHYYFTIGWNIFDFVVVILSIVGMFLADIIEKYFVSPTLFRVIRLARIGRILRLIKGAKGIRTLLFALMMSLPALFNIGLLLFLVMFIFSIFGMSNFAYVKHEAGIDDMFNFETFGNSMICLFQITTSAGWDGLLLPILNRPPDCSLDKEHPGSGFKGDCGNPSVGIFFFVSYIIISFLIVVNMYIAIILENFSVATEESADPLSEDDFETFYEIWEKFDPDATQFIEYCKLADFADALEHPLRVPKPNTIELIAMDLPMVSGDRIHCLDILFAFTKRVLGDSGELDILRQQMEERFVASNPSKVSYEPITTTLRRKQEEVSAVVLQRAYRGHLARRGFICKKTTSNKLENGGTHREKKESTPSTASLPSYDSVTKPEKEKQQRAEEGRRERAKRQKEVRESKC
Format: cell-based
Description: Functional characterization of exemplary compounds to modulate INaL expressed by the NaV1.6 voltage-gated sodium channel was accomplished using the PatchXpress™ high throughput electrophysiology platform (Molecular Devices, Sunnyvale, Calif.). HEK-293 cells expressing recombinant, human NaV1.6 (hNaV1.6) were grown in DMEM/high-glucose Dulbecco's modified, 10% FBS, 2 mM sodium pyruvate, 10 mM HEPES and 400 μg/mL G418. Cells were grown to 50%-80% confluency prior to harvesting. Trypsinized cells were washed, allowed to recover for 1 hour and then resuspended in extracellular recording solution at a concentration of 1×10^6 cells/ml. The onboard liquid handling facility of the PatchXpress was used for dispensing cells and applying test compounds. NaV late currents were evoked by the application of 300 nM ATX-II. INaL was evoked by depolarizing pulses to 0 mV for 200 ms from a non-inactivating holding potential (e.g., −120 mV) at a frequency of 0.1 Hz. INaL amplitude and stability were determined by analyzing the mean current amplitude over the final 20 ms of the test pulse. Following steady state block with exemplary compounds (e.g., as described herein), a Na+ free solution containing an impermeant cation (e.g., Choline or NDMG) was added to confirm the identify of the sodium current. Percent steady-state inhibition of INaL was calculated as: [(INaL_compound)/(INaL_control)]*100, where INaL_compound and INaL_control represent INaL recorded in the presence or absence of compound, respectively.

Row | Structure (SMILES) | inhibition at 1 µM
1 | COC(F)(F)c1nnc2cnc(-c3cnc(O[C@H](C)C(F)(F)F)c(F)c3)cn12 (racemic) [Compound 6A, 3-[difluoro(methoxy)methyl]-6-[5-fluoro-6-[rac-(1R)-2,2,2-trifluoro-1-methyl-ethoxy]-3-pyridyl]-[1,2,4]triazolo[4,3-a]pyrazine] | > 70%
2 | Fc1cc(-c2ccc3nnc(C(F)(F)OCC4CC4)n3c2)cnc1OCC(F)(F)F [Compound 1, 3-[cyclopropylmethoxy(difluoro)methyl]-6-[5-fluoro-6-(2,2,2-trifluoroethoxy)-3-pyridyl]-[1,2,4]triazolo[4,3-a]pyridine] | > 70%
3 | CC(C)COC(F)(F)c1nnc2ccc(-c3cnc(OCC(F)(F)F)c(F)c3)cn12 [Compound 2, 3-[difluoro(isobutoxy)methyl]-6-[5-fluoro-6-(2,2,2-trifluoroethoxy)-3-pyridyl]-[1,2,4]triazolo[4,3-a]pyridine] | > 70%
4 | CC(C)OC(F)(F)c1nnc2ccc(-c3cnc(OCC(F)(F)F)c(F)c3)cn12 [Compound 4, 3-[difluoro(isopropoxy)methyl]-6-[5-fluoro-6-(2,2,2-trifluoroethoxy)-3-pyridyl]-[1,2,4]triazolo[4,3-a]pyridine] | > 70%
5 | COC(F)(F)c1nnc2ccc(-c3cnc(OC(C)(C)C(F)(F)F)c(F)c3)nn12 [Compound 5, 3-[difluoro(methoxy)methyl]-6-[5-fluoro-6-(2,2,2-trifluoro-1,1-dimethyl-ethoxy)-3-pyridyl]-[1,2,4]triazolo[4,3-b]pyridazine] | > 70%
6 | COC(F)(F)c1nnc2ccc(-c3cnc(O[C@@H](C)C(F)(F)F)c(F)c3)cn12 [Compound 7, 3-[difluoro(methoxy)methyl]-6-[5-fluoro-6-[(1S)-2,2,2-trifluoro-1-methyl-ethoxy]-3-pyridyl]-[1,2,4]triazolo[4,3-a]pyridine] | > 70%
7 | COC(F)(F)c1nnc2ccc(-c3cnc(O[C@H](C)C(F)(F)F)c(F)c3)cn12 [Compound 8, 3-[difluoro(methoxy)methyl]-6-[5-fluoro-6-[(1R)-2,2,2-trifluoro-1-methyl-ethoxy]-3-pyridyl]-[1,2,4]triazolo[4,3-a]pyridine] | > 70%
8 | Fc1cc(-c2cn3c(C(F)(F)OCC4CC4)nnc3cn2)cnc1OCC(F)(F)F [Compound 9, 3-[cyclopropylmethoxy(difluoro)methyl]-6-[5-fluoro-6-(2,2,2-trifluoroethoxy)-3-pyridyl]-[1,2,4]triazolo[4,3-a]pyrazine] | > 70%
9 | COC(F)(F)c1nnc2ccc(-c3cnc(O[C@@H](C)C(F)(F)F)c(F)c3)nn12 [Compound 12, 3-[difluoro(methoxy)methyl]-6-[5-fluoro-6-[(1S)-2,2,2-trifluoro-1-methyl-ethoxy]-3-pyridyl]-[1,2,4]triazolo[4,3-b]pyridazine] | > 70%
10 | COC(F)(F)c1nnc2ccc(-c3cnc(O[C@H](C)C(F)(F)F)c(F)c3)nn12 [Compound 13, 3-[difluoro(methoxy)methyl]-6-[5-fluoro-6-[(1R)-2,2,2-trifluoro-1-methyl-ethoxy]-3-pyridyl]-[1,2,4]triazolo[4,3-b]pyridazine] | > 70%
11 | Fc1cc(-c2ccc3nnc(C(F)(F)OCC4CC4)n3n2)cnc1OCC(F)(F)F [Compound 14, 3-[cyclopropylmethoxy(difluoro)methyl]-6-[5-fluoro-6-(2,2,2-trifluoroethoxy)-3-pyridyl]-[1,2,4]triazolo[4,3-b]pyridazine] | > 70%
12 | COC(F)(F)c1nnc2cnc(-c3cnc(OC(C)(C)C(F)(F)F)c(F)c3)cn12 [Compound 15, 3-[difluoro(methoxy)methyl]-6-[5-fluoro-6-(2,2,2-trifluoro-1,1-dimethyl-ethoxy)-3-pyridyl]-[1,2,4]triazolo[4,3-a]pyrazine] | > 70%
13 | COC(F)(F)c1nnc2ccc(-c3cnc(OC4(C(F)(F)F)CCC4)c(F)c3)nn12 [Compound 17, 3-[difluoro(methoxy)methyl]-6-[5-fluoro-6-[1-(trifluoromethyl)cyclobutoxy]-3-pyridyl]-[1,2,4]triazolo[4,3-b]pyridazine] | > 70%
14 | COC(F)(F)c1nnc2ccc(-c3cnc(OC4(C(F)(F)F)CCC4)c(F)c3)cn12 [Compound 18, 3-[difluoro(methoxy)methyl]-6-[5-fluoro-6-[1-(trifluoromethyl)cyclobutoxy]-3-pyridyl]-[1,2,4]triazolo[4,3-a]pyridine] | > 70%
15 | C[C@H](Oc1ncc(-c2ccc3nnc(C(F)(F)OCC4CC4)n3c2)cc1F)C(F)(F)F [Compound 19, 3-[cyclopropylmethoxy(difluoro)methyl]-6-[5-fluoro-6-[(1S)-2,2,2-trifluoro-1-methyl-ethoxy]-3-pyridyl]-[1,2,4]triazolo[4,3-a]pyridine] | > 70%
16 | CC(C)OC(F)(F)c1nnc2ccc(-c3cnc(O[C@@H](C)C(F)(F)F)c(F)c3)cn12 [Compound 20, 3-[difluoro(isopropoxy)methyl]-6-[5-fluoro-6-[(1S)-2,2,2-trifluoro-1-methyl-ethoxy]-3-pyridyl]-[1,2,4]triazolo[4,3-a]pyridine] | > 70%
17 | CC(C)OC(F)(F)c1nnc2ccc(-c3cnc(O[C@H](C)C(F)(F)F)c(F)c3)cn12 [Compound 21, 3-[difluoro(isopropoxy)methyl]-6-[5-fluoro-6-[(1R)-2,2,2-trifluoro-1-methyl-ethoxy]-3-pyridyl]-[1,2,4]triazolo[4,3-a]pyridine] | > 70%
18 | CC(C)COC(F)(F)c1nnc2ccc(-c3cnc(O[C@@H](C)C(F)(F)F)c(F)c3)cn12 [Compound 22, 3-[difluoro(isobutoxy)methyl]-6-[5-fluoro-6-[(1S)-2,2,2-trifluoro-1-methyl-ethoxy]-3-pyridyl]-[1,2,4]triazolo[4,3-a]pyridine] | > 70%
19 | CC(C)COC(F)(F)c1nnc2ccc(-c3cnc(O[C@H](C)C(F)(F)F)c(F)c3)cn12 [Compound 23, 3-[difluoro(isobutoxy)methyl]-6-[5-fluoro-6-[(1R)-2,2,2-trifluoro-1-methyl-ethoxy]-3-pyridyl]-[1,2,4]triazolo[4,3-a]pyridine] | > 70%
20 | COC(F)(F)c1nnc2ccc(-c3cnc(OC(C)(C)C(F)(F)F)c(F)c3)cn12 [Compound 24, 3-[difluoro(methoxy)methyl]-6-[5-fluoro-6-(2,2,2-trifluoro-1,1-dimethyl-ethoxy)-3-pyridyl]-[1,2,4]triazolo[4,3-a]pyridine] | > 70%
21 | C[C@@H](Oc1ncc(-c2ccc3nnc(C(F)(F)OCC4CC4)n3c2)cc1F)C(F)(F)F [Compound 25, 3-[cyclopropylmethoxy(difluoro)methyl]-6-[5-fluoro-6-[(1R)-2,2,2-trifluoro-1-methyl-ethoxy]-3-pyridyl]-[1,2,4]triazolo[4,3-a]pyridine] | > 70%
22 | CCOC(F)(F)c1nnc2cnc(-c3cnc(O[C@H](C)C(F)(F)F)c(F)c3)cn12 [Compound 26, 3-[ethoxy(difluoro)methyl]-6-[5-fluoro-6-[(1R)-2,2,2-trifluoro-1-methyl-ethoxy]-3-pyridyl]-[1,2,4]triazolo[4,3-a]pyrazine] | > 70%
23 | COCc1nnc2ccc(-c3cnc(OC(C)(C)C(F)(F)F)c(F)c3)nn12 [Compound 27, 6-[5-fluoro-6-(2,2,2-trifluoro-1,1-dimethyl-ethoxy)-3-pyridyl]-3-(methoxymethyl)-[1,2,4]triazolo[4,3-b]pyridazine] | > 70%
24 | COCc1nnc2ccc(-c3cnc(OC(C)(C)C(F)(F)F)c(F)c3)cn12 [Compound 28, 6-[5-fluoro-6-(2,2,2-trifluoro-1,1-dimethyl-ethoxy)-3-pyridyl]-3-(methoxymethyl)-[1,2,4]triazolo[4,3-a]pyridine] | > 70%
25 | COCc1nnc2ccc(-c3cnc(OCC(F)(F)F)c(F)c3)cn12 [Compound 29, 6-[5-fluoro-6-(2,2,2-trifluoroethoxy)-3-pyridyl]-3-(methoxymethyl)-[1,2,4]triazolo[4,3-a]pyridine] | < 30%
26 | COC(F)(F)c1nnc2ccc(-c3cnc(OCC(F)(F)F)c(F)c3)cn12 [Compound 30, 3-[difluoro(methoxy)methyl]-6-[5-fluoro-6-(2,2,2-trifluoroethoxy)-3-pyridyl]-[1,2,4]triazolo[4,3-a]pyridine] | > 70%
27 | COCc1nnc2cnc(-c3cnc(O[C@H](C)C(F)(F)F)c(F)c3)cn12 [Compound 31, 6-[5-fluoro-6-[(1R)-2,2,2-trifluoro-1-methyl-ethoxy]-3-pyridyl]-3-(methoxymethyl)-[1,2,4]triazolo[4,3-a]pyrazine] | < 30%
28 | CCOC(F)(F)c1nnc2ccc(-c3cnc(O[C@@H](C)C(F)(F)F)c(F)c3)cn12 [Compound 32, 3-[ethoxy(difluoro)methyl]-6-[5-fluoro-6-[(1S)-2,2,2-trifluoro-1-methyl-ethoxy]-3-pyridyl]-[1,2,4]triazolo[4,3-a]pyridine] | > 70%
29 | CCOC(F)(F)c1nnc2cnc(-c3cnc(O[C@@H](C)C(F)(F)F)c(F)c3)cn12 [Compound 33, 3-[ethoxy(difluoro)methyl]-6-[5-fluoro-6-[(1S)-2,2,2-trifluoro-1-methyl-ethoxy]-3-pyridyl]-[1,2,4]triazolo[4,3-a]pyrazine] | > 70%
